Results from patent US20230173071A1, “TREATMENT OF MYOPIA AND OTHER OCULAR CONDITIONS USING SINGLET OXYGEN GENERATED FROM DYES ACTIVATED BY NEAR-INFRARED LIGHT” (California Institute of Technology, priority 2018, published 2023).

How the values were obtained:
[1] = test system: porcine sclera; experiment: Young's Modulus measurement (Instron) of irradiated porcine sclera strips; design: species or system porcine (pig); details: porcine sclera strips soaked in 2 mg/mL ICG, 0.01% BAC in D2O; 810 nm LED 200 mW, total 10 minutes
Protocol: All Young's Modulus values were determined using an Instron equipped with screw side action tensile grips and a load cell rated for max 100 N. Rates of pulling were between 3 mm/minute and 5 mm/minute. The software calculated the Young's Modulus from the force vs. distance/time.
The treatment was also tested on a more biologically relevant sample—unscalded porcine (pig) eyes (Sierra For Medical Science). Eyes were cut around the globe to make a 1 cm×5-6 cm strip of pig sclera for testing. Measurements were accumulated over several batches of eyes. Storage solutions before treatment (irradiation) contained 20% Dextran (MW ˜40-45k) in D2O while post-treatment storage was Dulbecco's buffer with 20% Dextran (MW ˜40-45k). An ICG/BAC/D2O soak solution was made to the concentration of 2 mg/mL ICG and 0.01% BAC. Strips for treatment were soaked in the solution for 0.5-2 hours. Irradiation was carried out similarly to the bovine gelatin strips—810 nm LED, 200 mW, and a 1 cm×1 cm irradiation zone. To ensure sufficient irradiation without sample dehydration, irradiation duration was kept at 5 minutes but performed twice—i.e. the sample was moved down 1 cm every 5 minutes and then the process was repeated—in order to give a total of 10 minutes of irradiation. […] The Young's Modulus values were calculated by the software and compiled to compare untreated vs. treated strips. […]

[2] = Singlet oxygen sensor green (SOSG) fluorescence measurements; type: physicochemical; details: for SOSG fluorescence emission at 525 nm: dye 0.1 mg/mL, 810 nm, 200 mW, 488 nm excitation
Protocol: Singlet oxygen sensor green (SOSG) is a common reagent for measuring singlet oxygen generation in aqueous systems. The marker becomes more fluorescent as singlet oxygen is generated. All time measurements were done in triplicate (100 μL aliquots from an irradiated sample). A Molecular Devices Flexstation was used to read out the fluorescence measurements with the excitation/emission at 488/525 nm.
SOSG fluorescence turn on was initially measured using riboflavin as a point of comparison for the efficacy of ICG irradiations. Measurements used a dye concentration of 0.1 mg/mL and the irradiation the parameters (3 mW at 365 nm) used in the FDA approved procedure for keratoconus (corneal expansion). The mixture was stirred during irradiation.
Stocks of the ICG formulations (both H2O and D2O) were made to be 1 mg/mL ICG and 0.01% benzalkonium chloride (BAC). These were diluted to a dye concentration of 0.1 mg/mL for the SOSG tests with no adjustments for the BAC. The sample was irradiated with 810 nm light at 200 mW and stirred throughout the irradiation.

[3] = Dye solubility observations; type: physicochemical
Protocol: ICG is a NIR-absorbing heptamethine dye that has the potential of generating singlet oxygen upon irradiation and has a λmax ranging from 780-810 nm depending on the context. […] BAC along with other cationic surfactants (alkyl ammonium salts, polyoxyethylene alkyl amines, amide linked alkyl amines, alkyl imidazolines, etc.) aid in the solubility of the dye in aqueous media. […] The standard formulation used in these studies consisted of 0.05 to 5.0 mg/mL ICG and 0.01% to 0.001% BAC in solution. D2O was selected as the solvent to increase the lifetime of singlet oxygen and therefore the crosslinking capability of the species. […] Fluorinated solvents (perfluorohexane, perfluorotripentylamine, etc.) are also of interest due to their ability to dissolve more oxygen and their robust inertness.

solubility in aqueous media ([3]; BAC compared with sodium iodide): greater increases in solubility | solubility in aqueous media ([3]; with BAC and other cationic surfactant additives): enhanced solubility
SMILES: CC1(C)C(/C=C/C=C/C=C/C=C2\N(CCCCS(=O)(=O)O)c3ccc4ccccc4c3C2(C)C)=[N+](CCCCS(=O)(=O)[O-])c2ccc3ccccc3c21 [ICG, indocyanine green]
increase of the Young's Modulus, irradiated (treated) vs non-irradiated (untreated) sample [1]: 21% | SOSG fluorescence emission at 525 nm ([2]; D2O): large increase in fluorescence activation | SOSG fluorescence emission at 525 nm ([2]; H2O): increase | singlet oxygen generation (SOSG turn-on) relative to riboflavin ([2]; only in the presence of D2O): efficient enough to compete with the turn-on observed in the presence of riboflavin
